Laboratory results reported in ChEMBL document CHEMBL1201862, “PubChem BioAssay data set” (2004).
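Exposure lasted 48 hours, with cells grown in 96-well plates and compounds tested at five concentrations. GI50 is the concentration that inhibits growth by half.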 Activity calls are given as the source filed them. Cut-off read from the data, not from the text of the source: active = GI50 up to about 1.1 µM and inactive = higher. *1 amine or outer side, *2 acyl side, *3 side chain or, on linkers, in order; H or OH if unused. Where a SMILES comes first, the peptide text is derived from it. Bridges are numbered along the chain shown (N, C = ends). [ ]: non-standard residue; d: D form. The star is where a group is joined. X56 = CC(C)C(C)C(C(=O)[*:2])N(C)[*:1]; Picolinoyl(3-OH) = O=C(c1ncccc1O)*; NMePhg = CN[CH](C(=O)O)c1ccccc1; Hyp = O=C(O)[CH]1C[CH](O)CN1; Sar = CNCC(=O)O

Assays:
Assay in all cases: growth of human tumour cells (NCI), 48 h
[1] = tested on: K562
[2] = tested on: LOX IMVI
[3] = tested on: SK-MEL-28
[4] = tested on: MOLT-4
[5] = tested on: SNB-78
[6] = tested on: DMS-273
[7] = tested on: NCI-H226
[8] = tested on: NCI-H522
[9] = tested on: MCF7
[10] = tested on: SK-MEL-2
[11] = tested on: A549
[12] = tested on: U-251
[13] = tested on: OVCAR-8
[14] = tested on: A498
[15] = tested on: Malme-3M
[16] = tested on: ACHN
[17] = tested on: LXFL 529

Measured: GI50

CC(C)CC1NC(=O)C(NC(=O)c2ncccc2O)C(C)OC(=O)C(c2ccccc2)N(C)C(=O)C(C)NC(=O)C(C(C)C(C)C)N(C)C(=O)CN(C)C(=O)C2CC(O)CN2C1=O (configuration not stated) ({Picolinoyl(3-OH)}-TL[Hyp][Sar][X56]A[NMePhg]; ester 1-C; configuration not given here)
inactive: [1] 61.8 µM | [2] > 125 µM | [3] 102 µM | [4] 43.2 µM | [5] > 125 µM | [6] 34.8 µM | [7] 71.1 µM | [8] 124 µM | [9] 13.7 µM | [10] 38.7 µM | [11] 52.6 µM | [12] 40.8 µM | [13] 15.7 µM | [14] > 107 µM | [15] 55.5 µM

ClC1CCC2OOC1O2 (configuration not stated)
inactive: [1] > 100 µM | [2] > 100 µM | [16] > 100 µM | [3] > 100 µM | [4] > 100 µM | [5] > 100 µM | [6] > 100 µM | [7] > 100 µM | [8] > 100 µM | [10] > 100 µM | [11] > 100 µM | [12] > 100 µM | [13] > 100 µM | [14] > 100 µM | [15] > 100 µM

N#CC1=C(N)n2c(s/c(=C\c3ccc(Cl)cc3)c2=O)=C(c2nc3ccccc3[nH]2)C1c1ccc(Cl)cc1 (configuration not stated)
inactive: [1] 1.91 µM | [17] 1.9 µM | [2] 1.65 µM | [16] 2.29 µM | [3] 1.53 µM | [4] 1.47 µM | [6] 2.12 µM | [7] 1.91 µM | [8] 1.96 µM | [10] 2.14 µM | [11] 3.32 µM | [12] 1.48 µM | [13] 1.81 µM | [14] 1.38 µM | [15] 2.25 µM

CCCCCCCCCCCCCCCCCCC1=C(O)C(=O)C=C(OC)C1=O
inactive: [17] 29.6 µM | [16] 28.7 µM | [3] 36.4 µM | [4] 21.1 µM | [5] 71.9 µM | [6] 55.2 µM | [7] 62.5 µM | [8] 28.4 µM | [10] 26.5 µM | [11] 46.8 µM | [12] 39 µM | [13] 32.4 µM | [14] > 100 µM | [15] 64.9 µM

CCOC(=O)C(=O)Nc1cc(Cl)ccc1Cl
inactive: [1] > 100 µM | [17] > 100 µM | [16] > 100 µM | [3] > 100 µM | [4] > 100 µM | [6] > 100 µM | [7] > 100 µM | [8] > 100 µM | [10] > 100 µM | [11] > 100 µM | [12] > 100 µM | [13] > 100 µM | [14] > 100 µM | [15] > 100 µM

COc1ccc(C(=O)OCC2OC(n3cnc4c(=S)nc[nH]c43)C(OC(=O)c3ccc(OC)cc3)C2OC(=O)c2ccc(OC)cc2)cc1 (configuration not stated)
inactive: [1] 3.27 µM | [17] > 100 µM | [16] 76.9 µM | [3] > 100 µM | [4] 22.5 µM | [6] 15 µM | [7] 30.1 µM | [8] 7 µM | [10] 12.8 µM | [11] > 100 µM | [12] > 100 µM | [13] 28.5 µM | [15] 32.2 µM

CC(C)c1cccc2sc(NC(=O)C(=O)C(C#N)c3cccc4ccccc34)nc12 (configuration not stated)
inactive: [17] 73.1 µM | [16] 69.8 µM | [3] > 100 µM | [4] 23.1 µM | [5] 93.1 µM | [6] 90.4 µM | [7] 71.1 µM | [8] 54.1 µM | [10] 45.2 µM | [11] 80.7 µM | [12] 57.5 µM | [13] 72.1 µM | [14] 73.3 µM | [15] 73.3 µM

CCCCCCCC(=O)OC[C@@H](C[As](=O)(O)O)OC(=O)CCCCCCC
inactive: [1] 13.8 µM | [17] 11.9 µM | [16] 12.7 µM | [3] 13.5 µM | [4] 2.58 µM | [5] 10.4 µM | [6] 12.1 µM | [7] 6.58 µM | [8] 1.56 µM | [11] 3.73 µM | [12] 5.74 µM | [13] 13.5 µM | [14] 11.2 µM | [15] 14.1 µM

O=C(O)CSc1ccc2nc3ccccc3c(O)c2c1
inactive: [1] > 100 µM | [17] > 100 µM | [2] > 100 µM | [16] > 100 µM | [3] > 100 µM | [4] > 100 µM | [6] > 100 µM | [7] > 100 µM | [11] > 100 µM | [12] > 100 µM | [13] > 100 µM | [14] > 100 µM | [15] > 100 µM

CC(=O)O[C@]1(C(C)=O)CC[C@H]2[C@@H]3C[C@H](C)C4=CC(=O)C=C[C@]4(C)[C@@]3(F)[C@@H](O)C[C@@]21C [FLUOROMETHOLONE ACETATE]
inactive: [1] 48.1 µM | [2] 63.5 µM | [16] 56.5 µM | [3] 86.3 µM | [4] 25.2 µM | [5] 72.6 µM | [6] 41.7 µM | [7] 22.2 µM | [8] 62.1 µM | [11] 43.2 µM | [12] 87.7 µM | [15] 24.9 µM

CCC1=C(C(C)=O)[C@@H]2CCCCC[C@@H](C(=O)OC)C2C1=O (some centres not stated)
inactive: [1] > 100 µM | [17] > 100 µM | [16] > 100 µM | [3] > 100 µM | [4] > 100 µM | [5] > 100 µM | [6] > 100 µM | [8] > 100 µM | [10] > 100 µM | [11] > 100 µM | [12] > 100 µM | [13] > 100 µM | [14] > 100 µM | [15] > 100 µM

OCC12C=CC(C1)c1ccccc12 (configuration not stated)
inactive: [1] > 100 µM | [17] > 100 µM | [2] > 100 µM | [16] > 100 µM | [3] > 100 µM | [4] > 100 µM | [6] > 100 µM | [7] > 100 µM | [11] > 100 µM | [12] > 100 µM | [13] > 100 µM | [14] > 100 µM | [15] > 100 µM

CCOC(=O)c1ccc(O)cc1 [ETHYLPARABEN]
inactive: [1] > 100 µM | [2] > 100 µM | [16] > 100 µM | [3] > 100 µM | [4] > 100 µM | [5] > 100 µM | [6] 55.5 µM | [7] > 100 µM | [8] > 100 µM | [10] > 100 µM | [11] > 100 µM | [12] > 100 µM | [15] > 100 µM

Cc1ccc(SC(CCC(Sc2ccc(C)cc2)Sc2ccc(C)cc2)Sc2ccc(C)cc2)cc1
inactive: [1] > 100 µM | [2] > 100 µM | [16] > 100 µM | [3] > 100 µM | [4] > 100 µM | [5] > 100 µM | [6] > 100 µM | [8] > 100 µM | [10] > 100 µM | [11] > 100 µM | [12] > 100 µM | [13] > 100 µM | [14] > 100 µM
